Series [1] relates to Wnt/β-Catenin signaling pathway. The series can be described thus: Wnt signaling luciferase (TOPflash) reporter gene assay. The format is cell-based. The note with it: for IC50: luciferase reporter gene assay, mean of three independent experiments, read-out: IC50 (nM) to inhibit the Wnt signaling activity. The text has this:
A dual-luciferase gene reporter assay was used to test inhibitory activities of new compounds on Wnt signaling. […] Therefore, the effects of new compounds on AMPK was examined. […]
A general note: In a reporter assay the amount or activity of a reporter protein is the signal.

Series [2] can be described thus: Cytotoxicity (CC50) during the luciferase gene reporter assay. The following applies: human, HEK293 cells; short treatment duration of the luciferase gene reporter assay. It is filed as cell-based.

Some results are limits rather than exact numbers.

The IC50 is the point on the concentration scale where inhibition reaches its midpoint. One may read the CC50 as the concentration giving 50% cytotoxicity. Read a high CC50 as lower toxicity to the cells. Broadly, the inhibition is the change of the read-out against control, counted positive when it falls. Low values mean little suppression, high ones strong suppression.

Consider `Cc1ccc(-c2csc(NC(=O)c3nnn(-c4ccccc4C)c3C)n2)c(C)c1` [YA4169], for which the IC50 in series [1] was over 1000 nM. In series [2], this compound registered a cytotoxic concentration (CC50) of over 92000 nM.
`Cc1ccccc1-n1nnc(C(=O)Nc2cc(Br)c3ccccc3n2)c1C` [YA6150, N-(4-bromoquinolin-2-yl)-5-methyl-1-(o-tolyl)-1H-1,2,3-triazole-4-carboxamide]: in series [1], the concentration for half-maximal inhibition (IC50) is over 1000 nM. In series [2], this compound registered a half-maximal cytotoxic concentration (CC50) of over 92000 nM.
For `Cc1ccccc1-n1nnc(C(=O)Nc2nc3ccc([N+](=O)[O-])cc3s2)c1C` [YA4057, 5-Methyl-N-(6-nitrobenzo[d]thiazol-2-yl)-1-(o-tolyl)-1H-1,2,3-triazole-4-carboxamide], in that order: over 1000 nM and over 92000 nM.
Take `Cc1ccccc1-n1nnc(C(=O)Nc2ccc3ccc(Br)cc3n2)c1C` [YA1126, N-(7-Bromoquinolin-2-yl)-5-methyl-1-(o-tolyl)-1H-1,2,3-triazole-4-carboxamide]: the IC50 in series [1] was over 1000 nM. For the same compound, the half-maximal cytotoxic concentration (CC50) in series [2] is over 92000 nM.
Regarding `Cc1ccccc1-n1nnc(C(=O)Nc2ccc3ccccc3n2)c1C` [FX1128, reference compound], the IC50 in series [1] came to 4.1 nM. Also, in series [2], the cytotoxic concentration (CC50) is over 92000 nM.
Consider `Cc1ccccc1-n1nnc(C(=O)Nc2cccc3ncccc23)c1C` [YA61693, 5-Methyl-N-(quinolin-5-yl)-1-(o-tolyl)-1H-1,2,3-triazole-4-carboxamide], for which the 50% inhibitory concentration (IC50) in series [1] was over 1000 nM. In series [2], the CC50 is over 92000 nM.
As for `Cc1c(C(=O)Nc2nc3ccccc3s2)nnn1-c1ccccc1Br` [YA4003, N-(Benzo[d]thiazol-2-yl)-1-(2-bromophenyl)-5-methyl-1H-1,2,3-triazole-4-carboxamide], in series [1], the inhibition at 1 µM worked out at 100% and the concentration for half-maximal inhibition (IC50) is 1.8 nM. The compound further showed a CC50 in series [2] of over 92000 nM.
Consider `CC(C)c1c(C(=O)Nc2nc3ccccc3s2)cnn1-c1ccccc1` [YA6144, N-(Benzo[d]thiazol-2-yl)-5-isopropyl-1-phenyl-1H-pyrazole-4-carboxamide], for which the IC50 in series [1] is over 1000 nM. In series [2], this compound came in with a CC50 of over 92000 nM.
`Cc1cccc(F)c1-n1nnc(C(=O)Nc2nc3ccccc3s2)c1C` [YA1042, N-(Benzo[d]thiazol-2-yl)-1-(2-fluoro-6-methylphenyl)-5-methyl-1H-1,2,3-triazole-4-carboxamide]: in series [1], the inhibition at 1 µM turned out to be 92% and the IC50 is 3.3 nM. Further, the 50% cytotoxic concentration (CC50) in series [2] was over 92000 nM.
Regarding `CCc1c(C(=O)Nc2nc3ccccc3s2)cnn1-c1ccccc1` [YA6143, N-(Benzo[d]thiazol-2-yl)-5-ethyl-1-phenyl-1H-pyrazole-4-carboxamide], the half-maximal inhibitory concentration (IC50) in series [1] amounted to 3.6 nM. This compound had a CC50 in series [2] of over 92000 nM.
For `COc1ccc2sc(NC(=O)c3nnn(-c4ccccc4C)c3C)nc2c1` [YA4045, N-(5-Methoxybenzo[d]thiazol-2-yl)-5-methyl-1-(o-tolyl)-1H-1,2,3-triazole-4-carboxamide], in that order: over 1000 nM and over 92000 nM.
For `Cc1ccccc1-n1cc(C(=O)Nc2ccc3ccccc3n2)nn1` [YA70131, N-(Quinolin-2-yl)-1-(o-tolyl)-1H-1,2,3-triazole-4-carboxamide], in that order: over 1000 nM and over 92000 nM.
For `Cc1c(C(=O)Nc2nc3ccccc3s2)nnn1-c1ccc(F)cc1` [YA1076, N-(Benzo[d]thiazol-2-yl)-1-(4-fluorophenyl)-5-methyl-1H-1,2,3-triazole-4-carboxamide], in series [1], the inhibition at 1 µM was 15% and the 50% inhibitory concentration (IC50) is over 1000 nM. In series [2], this compound gave a CC50 of over 92000 nM.
Consider `CCc1c(C(=O)Nc2nc3ccc(F)cc3s2)nnn1-c1ccccc1F` [YA4165, 5-Ethyl-N-(6-fluorobenzo[d]thiazol-2-yl)-1-(2-fluorophenyl)-1H-1,2,3-triazole-4-carboxamide], for which, in series [1], the half-inhibitory concentration (IC50) came to 0.5 nM. Further, in series [2], the half-maximal cytotoxic concentration (CC50) is over 92000 nM.
For `Cc1c(C(=O)Nc2nc3ccccc3s2)nnn1-c1cccc(Cl)c1` [YA4055, N-(Benzo[d]thiazol-2-yl)-1-(3-chlorophenyl)-5-methyl-1H-1,2,3-triazole-4-carboxamide], in series [2], the 50% cytotoxic concentration (CC50) was over 92000 nM.
As to `Cc1ccccc1-n1nnc(C(=O)Nc2ccc3cc(CN4CCN(C(=O)CCOCCOCCOCCOCCNC(=O)CCCC[C@@H]5SC[C@@H]6NC(=O)N[C@@H]65)CC4)ccc3n2)c1C` [YA6023], the “inhibitory activity in the reporter assay” value in series [1] (biotinylated analogs) is on record as “maintained inhibitory activities”.
As to `Cc1ccccc1-n1nnc(C(=O)Nc2ccc3ncccc3c2)c1C` [YA6056, 5-Methyl-N-(quinolin-6-yl)-1-(o-tolyl)-1H-1,2,3-triazole-4-carboxamide], in series [1], the IC50 is over 1000 nM. The same compound had a 50% cytotoxic concentration (CC50) in series [2] of over 92000 nM.
Consider `Cc1ccccc1-n1nnc(C(=O)Nc2nc(-c3ccccc3F)cs2)c1C` [YA4143], for which the half-inhibitory concentration (IC50) in series [1] was over 1000 nM. This compound yielded a CC50 in series [2] of over 92000 nM.
Consider `Cc1ccccc1-n1nnc(C(=O)Nc2nc(-c3ccccn3)cs2)c1C` [YA4173], for which, in series [1], the inhibition at 1 µM was found to be 7% and the concentration for half-maximal inhibition (IC50) was over 1000 nM. In series [2], this compound yielded a CC50 of over 92000 nM.
Take `Cc1c(C(=O)Nc2nc3ccccc3s2)nnn1-c1ccccc1Cl` [YA6027, N-(Benzo[d]thiazol-2-yl)-1-(2-chlorophenyl)-5-methyl-1H-1,2,3-triazole-4-carboxamide]: in series [1], the inhibition at 1 µM was 98% and the half-inhibitory concentration (IC50) is 0.8 nM. Further, the CC50 in series [2] was over 92000 nM.
Regarding `Cc1c(C(=O)Nc2cnc3ccccc3n2)nnn1-c1ccccc1` [YA6141, 5-Methyl-1-phenyl-N-(quinoxalin-2-yl)-1H-1,2,3-triazole-4-carboxamide], the IC50 in series [1] worked out at 1.7 nM. The same compound yielded a CC50 in series [2] of over 92000 nM.
In the case of `Cc1c(C(=O)Nc2nc3ccccc3s2)nnn1-c1c(F)cccc1F` [YA6090, N-(Benzo[d]thiazol-2-yl)-1-(2,6-difluorophenyl)-5-methyl-1H-1,2,3-triazole-4-carboxamide], in series [1], testing at 1 µM gave an inhibition of 97% and the IC50 came to 2.5 nM. The 50% cytotoxic concentration (CC50) in series [2] was over 92000 nM.
For `O=C(Nc1nc2ccccc2s1)c1nnn(-c2ccccc2F)c1C(F)(F)F` [YA6168, N-(Benzo[d]thiazol-2-yl)-1-(2-fluorophenyl)-5-(trifluoromethyl)-1H-1,2,3-triazole-4-carboxamide], in that order: 91%, 3.3 nM and over 92000 nM.
Taken in the same sequence, the figures for `O=C(Nc1nc2ccc(F)cc2s1)c1nnn(-c2ccccc2F)c1C(F)(F)F` [YA6175, N-(6-Fluorobenzo[d]thiazol-2-yl)-1-(2-fluorophenyl)-5-(trifluoromethyl)-1H-1,2,3-triazole-4-carboxamide] were 85%, 17 nM and over 92000 nM.
`Cc1ccc2nc(NC(=O)c3nnn(-c4ccccc4C)c3C)sc2c1` [YA4069, 5-Methyl-N-(6-methylbenzo[d]thiazol-2-yl)-1-(o-tolyl)-1H-1,2,3-triazole-4-carboxamide]: the concentration for half-maximal inhibition (IC50) in series [1] was found to be 15 nM. Further, the half-maximal cytotoxic concentration (CC50) in series [2] is over 92000 nM.
Regarding `Cc1c(C(=O)Nc2nc3ccccc3s2)nnn1-c1ccccc1F` [YA4029, N-(benzo[d]thiazol-2-yl)-1-(2-fluorophenyl)-5-methyl-1H-1,2,3-triazole-4-carboxamide], in series [1], the inhibition at 1 µM is 100% and the IC50 amounted to 0.46 nM. Also, in series [2], the cytotoxic concentration (CC50) is over 92000 nM.
For `Cc1c(C(=O)Nc2nc3ccccc3s2)cnn1-c1ccccc1Br` [YA4033, N-(Benzo[d]thiazol-2-yl)-1-(2-bromophenyl)-5-methyl-1H-pyrazole-4-carboxamide], the IC50 in series [1] turned out to be 5.8 nM. The CC50 in series [2] is over 92000 nM.
On to `COc1ccc2nc(NC(=O)c3nnn(-c4ccccc4C)c3C)sc2c1` [YA4091, N-(6-Methoxybenzo[d]thiazol-2-yl)-5-methyl-1-(o-tolyl)-1H-1,2,3-triazole-4-carboxamide], for which, in series [1], the inhibition at 1 µM was found to be 12% and the IC50 was over 1000 nM. In addition, the half-maximal cytotoxic concentration (CC50) in series [2] was over 92000 nM.
Regarding `Cc1c(C(=O)Nc2cnc3ccccc3n2)nnn1-c1ccccc1Cl` [YA6139, 1-(2-Chlorophenyl)-5-methyl-N-(quinoxalin-2-yl)-1H-1,2,3-triazole-4-carboxamide], the concentration for half-maximal inhibition (IC50) in series [1] is 0.11 nM. The CC50 in series [2] is over 92000 nM.
Take `CCc1c(C(=O)Nc2nc3ccccc3s2)nnn1-c1ccccc1F` [YA4001, N-(Benzo[d]thiazol-2-yl)-5-ethyl-1-(2-fluorophenyl)-1H-1,2,3-triazole-4-carboxamide]: the IC50 in series [1] was found to be 0.76 nM. The CC50 in series [2] is over 92000 nM.
For `CCc1ccccc1-n1ncc(C(=O)Nc2nc3ccccc3s2)c1C` [YA4009, N-(Benzo[d]thiazol-2-yl)-1-(2-ethylphenyl)-5-methyl-1H-pyrazole-4-carboxamide], in that order: 6.7 nM and over 92000 nM.
Taken in the same sequence, the figures for `Cc1ccccc1-n1nnc(C(=O)Nc2nc(-c3ccccc3Br)cs2)c1C` [YA4135] were over 1000 nM and over 92000 nM.
For `Cc1c(C(=O)Nc2nc3ccccc3s2)cnn1-c1cccc(Cl)c1F` [YA4021, N-(Benzo[d]thiazol-2-yl)-1-(3-chloro-2-fluorophenyl)-5-methyl-1H-pyrazole-4-carboxamide], in that order: 9.8 nM and over 92000 nM.
Turning to `Cc1ccccc1-n1nnc(C(=O)Nc2nc3ccc(OC(F)(F)F)cc3s2)c1C` [YA4065, 5-Methyl-1-(o-tolyl)-N-(6-(trifluoromethoxy)benzo[d]thiazol-2-yl)-1H-1,2,3-triazole-4-carboxamide], in series [1], the inhibition at 1 µM is 16% and the 50% inhibitory concentration (IC50) was over 1000 nM. The CC50 in series [2] was over 92000 nM.
For the compound `COc1ccccc1-n1ncc(C(=O)Nc2nc3ccccc3s2)c1C` [YA7020, N-(Benzo[d]thiazol-2-yl)-1-(2-methoxyphenyl)-5-methyl-1H-pyrazole-4-carboxamide], in series [1], the IC50 turned out to be 9.5 nM. This compound also displayed a half-maximal cytotoxic concentration (CC50) in series [2] of over 92000 nM.
Compound `O=C(Nc1nc2ccccc2s1)c1cnn(-c2ccccc2)c1` [YA6149, N-(Benzo[d]thiazol-2-yl)-1-phenyl-1H-pyrazole-4-carboxamide] came in with a CC50 in series [2] of over 92000 nM.
In the case of `Cc1cc(/C=C/c2ccc3cc(N(C)C)ccc3[n+]2C)c(C)n1-c1ccccc1` [Pyrvinium, reference compound], in series [1], testing at 1 µM gave an inhibition of 69% and the IC50 was 599 nM.

For the origin of these results see patent publication US20240279201A1, “DUAL WNT SIGNALING PATHWAY INHIBITORS AND AMPK ACTIVATORS FOR TREATMENTS OF DISEASE” (priority 2021, published 2024).
